Measured values published in PubChem BioAssay (NCI).
Values joined by “and” are separate entries in the source; they are usually repeats but may differ in a detail not shown here. Equal values may be shown once.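 Assay format: 96-well plates, 48-hour exposure. GI50 marks 50% less growth. TGI: total growth inhibition.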

Key:
Assay in all cases: NCI anticancer screen, dose series, 48 h
[1] = test system: HCC-2998 colon
[2] = test system: HS 578T breast
[3] = test system: OVCAR-3 ovarian
[4] = test system: NCI-H23 lung
[5] = test system: IGROV1 ovarian
[6] = test system: NCI-H226 lung
[7] = test system: MALME-3M melanoma
[8] = test system: SR leukemia
[9] = test system: MCF7 breast
[10] = test system: SF-268 CNS
[11] = test system: COLO 205 colon
[12] = test system: KM12 colon
[13] = test system: MDA-MB-435
[14] = test system: SK-MEL-2 melanoma
[15] = test system: RXF 393 renal
[16] = test system: A549 NSCLC
[17] = test system: K-562 leukemia
[18] = test system: SK-MEL-5 melanoma
[19] = test system: HOP-62 NSCLC
[20] = test system: ACHN renal
[21] = test system: HL-60(TB) leukemia
[22] = test system: EKVX NSCLC
[23] = test system: RPMI-8226 leukemia
[24] = test system: NCI-H460 lung
[25] = test system: SW-620 colon
[26] = test system: U251 CNS
[27] = test system: MDA-MB-231 breast
[28] = test system: MOLT-4 leukemia
[29] = test system: DU-145 prostate
[30] = test system: OVCAR-5 ovarian
[31] = test system: BT-549 breast
[32] = test system: HOP-92 NSCLC
[33] = test system: UACC-257 melanoma
[34] = test system: OVCAR-8 ovarian
[35] = test system: HCT-116 colon
[36] = test system: UO-31 renal
[37] = test system: LOX IMVI melanoma
[38] = test system: HCT-15 colon
[39] = test system: SK-MEL-28 melanoma
[40] = test system: M14 melanoma
[41] = test system: SNB-75 CNS
[42] = test system: T-47D breast
[43] = test system: HT29 colon
[44] = test system: TK-10 renal
[45] = test system: SF-295 CNS
[46] = test system: NCI/ADR-RES ovarian
[47] = test system: MDA-N
[48] = test system: SN12C renal
[49] = test system: OVCAR-4 ovarian
[50] = test system: A498 renal
[51] = test system: NCI-H522 lung
[52] = test system: UACC-62 melanoma
[53] = test system: CCRF-CEM leukemia
[54] = test system: 786-0 renal
[55] = test system: CAKI-1 renal
[56] = test system: SF-539 CNS
[57] = test system: SK-OV-3 ovarian
[58] = test system: SNB-19 CNS
[59] = test system: PC-3 prostate

CCCOc1c2cc(COC3OC(CO)C(O)C(O)C3O)cc1Cc1cc(COC3OC(CO)C(O)C(O)C3O)cc(c1OCCC)Cc1cc(COC3OC(CO)C(O)C(O)C3O)cc(c1OCCC)Cc1cc(COC3OC(CO)C(O)C(O)C3O)cc(c1OCCC)C2 (stereo not drawn)
TGI [1]: > 100 µM
TGI [2]: > 100 µM
GI50 [3]: 53.2 µM and > 100 µM and 19.3 µM
TGI [3]: > 100 µM and 51.7 µM
GI50 [4]: 69.6 µM and 71 µM and 21.2 µM
TGI [4]: > 100 µM and 52.8 µM
GI50 [5]: 60.2 µM and > 100 µM and 15.9 µM
TGI [5]: > 100 µM and 40.8 µM
GI50 [6]: 59.2 µM and > 100 µM and 17.7 µM
TGI [6]: > 100 µM and 40.1 µM
TGI [7]: > 100 µM
GI50 [8]: 29.9 µM and 13.8 µM
TGI [8]: 48.9 µM and 29.5 µM
GI50 [9]: 53.7 µM and > 100 µM and 19.4 µM
TGI [9]: > 100 µM and 44.3 µM
GI50 [10]: > 100 µM and 80.4 µM and 17.5 µM
TGI [10]: > 100 µM and 33.3 µM
GI50 [11]: 38.9 µM and 35.9 µM and 13.1 µM
TGI [11]: > 100 µM and 26.1 µM
GI50 [12]: 75.4 µM and > 100 µM and 19.3 µM
TGI [12]: > 100 µM and 39.2 µM
GI50 [13]: 57.2 µM and > 100 µM and 20.6 µM
TGI [13]: > 100 µM and 41.1 µM
GI50 [14]: 57 µM and 96.4 µM and 15.7 µM
TGI [14]: > 100 µM and 35.6 µM
GI50 [15]: 14.2 µM and 23.9 µM
TGI [15]: 33.9 µM and 87 µM and 77.4 µM
GI50 [16]: 49.5 µM and > 100 µM and 26.9 µM
TGI [16]: > 100 µM and 94.4 µM
GI50 [17]: 36.7 µM and 62.2 µM and 15.8 µM
TGI [17]: > 100 µM and 32.5 µM
GI50 [18]: 96.7 µM and > 100 µM and 17.1 µM
TGI [18]: > 100 µM and 32.7 µM
GI50 [19]: > 100 µM and 29.2 µM
TGI [19]: > 100 µM and 93.7 µM
GI50 [20]: > 100 µM and 23.9 µM
TGI [20]: > 100 µM and 63.4 µM
GI50 [21]: 27.8 µM and 78 µM and 7.86 µM
TGI [21]: 77.7 µM and > 100 µM and 21.6 µM
GI50 [22]: > 100 µM and 35.5 µM
TGI [22]: > 100 µM
TGI [23]: > 100 µM
GI50 [24]: 56.9 µM and > 100 µM and 30.3 µM
TGI [24]: > 100 µM and 92.3 µM
GI50 [25]: 99.9 µM and > 100 µM and 15.6 µM
TGI [25]: > 100 µM and 36.2 µM
GI50 [26]: 49.3 µM and 48.5 µM and 16.6 µM
TGI [26]: > 100 µM and 31.6 µM
GI50 [27]: 45.2 µM and > 100 µM and 17 µM
TGI [27]: > 100 µM and 34.1 µM
TGI [28]: 29 µM
GI50 [29]: > 100 µM and 35.1 µM
TGI [29]: > 100 µM
GI50 [30]: 41.8 µM and > 100 µM and 22 µM
TGI [30]: > 100 µM and 55.2 µM
GI50 [31]: > 100 µM and 72.8 µM and 21.8 µM
TGI [31]: > 100 µM and 36.4 µM
TGI [32]: > 100 µM
GI50 [33]: 67.1 µM and > 100 µM and 33.6 µM
TGI [33]: > 100 µM
GI50 [34]: > 100 µM and 18.4 µM
TGI [34]: > 100 µM and 42.6 µM
GI50 [35]: 48.6 µM and > 100 µM and 16.7 µM
TGI [35]: > 100 µM and 32.2 µM
GI50 [36]: > 100 µM and 28.8 µM
TGI [36]: > 100 µM
GI50 [37]: > 100 µM and 58.6 µM and 17.6 µM
TGI [37]: > 100 µM and 31.4 µM
GI50 [38]: > 100 µM and 42.1 µM
TGI [38]: > 100 µM
GI50 [39]: > 100 µM and 14.5 µM
TGI [39]: > 100 µM and 29 µM
GI50 [40]: 61.1 µM and 56.1 µM and 16.2 µM
TGI [40]: > 100 µM and 32.4 µM
GI50 [41]: 18.5 µM and 55.4 µM and 22.2 µM
TGI [41]: 93.7 µM and > 100 µM and 62.8 µM
GI50 [42]: 34.3 µM and 69.9 µM and 29 µM
TGI [42]: > 100 µM
GI50 [43]: > 100 µM and 89.8 µM and 32.6 µM
TGI [43]: > 100 µM
GI50 [44]: > 100 µM and 46.8 µM
TGI [44]: > 100 µM
GI50 [45]: 67.5 µM and 84.6 µM and 17.4 µM
TGI [45]: > 100 µM and 35.7 µM
TGI [46]: > 100 µM
GI50 [47]: > 100 µM and 18.4 µM
TGI [47]: > 100 µM and 34.8 µM
GI50 [48]: 96.6 µM and > 100 µM and 18.5 µM
TGI [48]: > 100 µM and 43.5 µM
TGI [49]: > 100 µM and 76.6 µM
GI50 [50]: 88.4 µM and > 100 µM and 16.3 µM
TGI [50]: > 100 µM and 42.5 µM
GI50 [51]: 32.4 µM and 72.8 µM and 13.7 µM
TGI [51]: > 100 µM and 26.6 µM
GI50 [52]: 90.7 µM and > 100 µM and 16 µM
TGI [52]: > 100 µM and 35 µM
GI50 [53]: 7.52 µM and 17.6 µM
TGI [53]: > 100 µM and 36.5 µM
GI50 [54]: > 100 µM and 28.1 µM
TGI [54]: > 100 µM and 89.8 µM
GI50 [55]: > 100 µM and 25 µM
TGI [55]: > 100 µM and 64.8 µM
GI50 [56]: > 100 µM and 25 µM
TGI [56]: > 100 µM and 79.8 µM
GI50 [57]: > 100 µM and 34.9 µM
TGI [57]: > 100 µM
GI50 [58]: 66.1 µM and > 100 µM and 17.5 µM
TGI [58]: > 100 µM and 32.1 µM
GI50 [59]: > 100 µM and 17.2 µM
TGI [59]: > 100 µM and 46.2 µM

CCOP(=O)(OCC)C(F)(F)CC1CCCCC1
TGI [1]: > 10 µM
TGI [2]: > 10 µM
TGI [3]: > 10 µM
TGI [4]: > 10 µM
TGI [5]: > 10 µM
TGI [6]: > 10 µM
TGI [7]: > 10 µM
TGI [8]: > 10 µM
TGI [9]: > 10 µM
TGI [10]: > 10 µM
TGI [11]: > 10 µM
TGI [12]: > 10 µM
TGI [13]: > 10 µM
TGI [14]: > 10 µM
TGI [15]: > 10 µM
TGI [16]: > 10 µM
TGI [17]: > 10 µM
TGI [18]: > 10 µM
TGI [19]: > 10 µM
TGI [20]: > 10 µM
TGI [21]: > 10 µM
TGI [22]: > 10 µM
TGI [23]: > 10 µM
TGI [24]: > 10 µM
TGI [25]: > 10 µM
TGI [26]: > 10 µM
TGI [27]: > 10 µM
TGI [28]: > 10 µM
TGI [29]: > 10 µM
TGI [30]: > 10 µM
TGI [31]: > 10 µM
TGI [32]: > 10 µM
TGI [33]: > 10 µM
TGI [34]: > 10 µM
TGI [35]: > 10 µM
TGI [36]: > 10 µM
TGI [37]: > 10 µM
TGI [38]: > 10 µM
TGI [39]: > 10 µM
TGI [40]: > 10 µM
TGI [41]: > 10 µM
TGI [42]: > 10 µM
TGI [43]: > 10 µM
TGI [44]: > 10 µM
TGI [45]: > 10 µM
TGI [46]: > 10 µM
TGI [47]: > 10 µM
TGI [48]: > 10 µM
TGI [49]: > 10 µM
TGI [50]: > 10 µM
TGI [52]: > 10 µM
TGI [53]: > 10 µM
TGI [54]: > 10 µM
TGI [55]: > 10 µM
TGI [56]: > 10 µM
TGI [57]: > 10 µM
TGI [58]: > 10 µM
TGI [59]: > 10 µM
